Here are results for 1 compound from US20170119835A1, “METHOD OF MAKING AN ADJUNCT TO […] OF RIBOSOMAL FUNCTIONS IN TUMOR CELLS AND PREVENT BODY WEIGHT LOSS DURING CYCLOP[…] THERAPY” (priority 2009, published 2017).

The data set has as its system S-180 cells. The source says: Healthy adult male mice of BALB/c strain (hereinafter, “animals”) weighing between 18 to 22 g were selected randomly. The animals were divided in to six groups. Each animal was identified by color marking. Each cage was identified by a label according to the group. The label contained the name of experiment, number of mice in that cage, dose (mg/kg) and date of initiation and completion of experiment. The groups received treatments for a period of 15 days. On Day 16, samples of blood were withdrawn, under anesthesia, from orbital sinus of the animals. The samples were collected in tubes containing Heparin as an anticoagulant.
Group I was treated as vehicle control and received vehicle (Corn oil) orally, in equal volume as in treatment groups. Group II received only tumor cells (1×10^6 cells) intra-peritoneally. Group III received tumor cells (1×10^6 cells) and cyclophosphamide (150 mg/kg body weight) intra-peritoneally. Group IV and Group V received Tumor cells and BV-3115 at 100 mg/kg body weight and 250 mg/kg body weight respectively.
A group of male mice approximately 7-8 weeks old and weighing between 18-22 gm were used for this study. Animal room temperature & relative humidity were maintained at 22-30 C. and 30-70% respectively. All mice were given free access to purified water (Purified with Aquaguard) & standard pelleted laboratory animal feed. After acclimation period of 7 days, each animal was weighed and then the animals were randomly selected according to body weights and allocated to the different treatment groups, so that mean body weights of groups were not statistically different before starting the experiment. Tumor implantation with S-180 cells 1×10^6 cells I.P. to all groups except group I (sham control no tumor, no drug).

The mark [1] stands for this setting: all treatment groups, Day 16 blood.

For `O=P1(N(CCCl)CCCl)NCCCO1` (stereo not drawn) [cyclophosphamide], where the note is “BALB/c mice, 15 days, cyclophosphamide 150 mg/kg i.p., BV-3115 100 and 250 mg/kg, combination with BV-3115 100 mg/kg”, the mortality result is “No mortality”. Moreover, the “body weight compared to Group I” value (Group III, cyclophosphamide 150 mg/kg i.p., P<0.05) is reported as “normal weight gain till Day 10, thereafter sudden decrease in weights”. Besides, under “S-180 cells 1×106 I.P., vs sham control / tumor group”, the “body weight on day 15” value is given as “reduced the body weight alarmingly lower than sham control”. Besides, the “platelets compared with Group I (vehicle control)” value (all treatment groups) was “comparable to Group I”. Moreover, the “body weight compared to Group II (tumor cells only)” value (all treatment groups (III, IV, V and VI)) was “significant decrease in body weight”. Moreover, under setting [1], the RBC count entry is recorded as “increased in varying degrees” and the hemoglobin content entry was “increased in varying degrees”. Moreover, the “white blood cells compared with Group II” value (group III (cyclophosphamide) and VI (combination), P<0.05) is recorded as “statistically significant decrease in white blood cells”. The clinical signs entry (other groups: cyclophosphamide 150 mg/kg, BV-3115 100 mg/kg, combination) is “No clinically abnormal signs”.
